Our source for the IC50 values is patent US20210040118A1, “IMMUNOMODULATORS, COMPOSITIONS AND METHODS THEREOF” (BETTA PHARMACEUTICALS CO., LTD, priority 2018, published 2021).

Structures are written as SMILES.

T1 sequence (Q9NZQ7 19-238): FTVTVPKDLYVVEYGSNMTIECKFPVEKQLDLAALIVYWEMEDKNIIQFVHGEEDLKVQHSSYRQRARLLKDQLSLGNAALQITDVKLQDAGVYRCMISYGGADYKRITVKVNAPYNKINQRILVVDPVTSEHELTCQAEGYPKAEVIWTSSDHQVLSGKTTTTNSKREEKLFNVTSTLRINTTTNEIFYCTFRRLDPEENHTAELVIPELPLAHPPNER

One assay addresses T1, PD-1/PD-L1 (Homo sapiens, UniProt Q9NZQ7).
T1 construct: Recombinant human PD-L1 protein (19-238) with a His-tag at the C-terminus; purchased AcroBiosystems PD1-H5229 (PD-L1); PD1-H5257 (PD-1)
Nature of the assay: PD-1/PD-L1 homogenous time-resolved fluorescence (HTRF) binding assay. Conditions: recombinant human PD-L1 (19-238) His-tag / human PD-1 (25-167) Fc tag, class symbols. The gist of the method:
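HTRF binding of human PD-1 (25-167, Fc-tagged) at 3 nM and PD-L1 (19-238, His-tagged) at 10 nM, preincubated 40 min with inhibitor in PBS pH 7.4, 0.05% Tween-20, 0.1% BSA, 1% DMSO, 25°C. Eu anti-IgG (1 nM) and anti-His-APC (20 nM) added, 60 min; 665/620 nm ratio; IC50 from curve fit.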
Turning to `CC(C)[C@H](NCc1cnc(C(=O)Nc2cccc(-c3cccc(NC(=O)c4ncc(CN[C@H](C(=O)O)C(C)C)s4)c3Cl)c2Cl)s1)C(=O)O` [Example 69, ((2-((3′-(5-((((S)-1-carboxy-2-methylpropyl)amino)methyl)thiazole-2-carboxamido)-2,2′-dichloro-[1,1′-biphenyl]-3-yl)carbamoyl)thiazol-5-yl)methyl)-L-valine], the IC50 is < 25 nM. With `Cc1nc(C(=O)Nc2cccc(-c3cccc4c3CCN4C(=O)c3nc(C)c(CN[C@H](C(=O)O)C4CCOCC4)s3)c2)sc1CN[C@H](C(=O)O)C1CCOCC1` [Example 63, (S)-2-((2-(3-(1-(5-(((S)-carboxy(tetrahydro-2H-pyran-4-yl)methylamino)methyl)-4-methylthiazole-2-carbonyl)indolin-4-yl)phenylcarbamoyl)-4-methylthiazol-5-yl)methylamino)-2-(tetrahydro-2H-pyran-4-yl)acetic acid], the IC50 is < 25 nM. `N#Cc1c(NC(=O)c2nc3c(s2)CNCC3)cccc1-c1cccc(NC(=O)c2nc3c(s2)CNCC3)c1C#N` [Example 74, N,N′-(2,2′-dicyano-[1,1′-biphenyl]-3,3′-diyl)bis(4,5,6,7-tetrahydrothiazolo[5,4-c]pyridine-2-carboxamide)]: the IC50 is < 25 nM. The same measure, in the same setting: under `O=C(Nc1cccc(-c2cccc(NC(=O)c3ncc(CNCCO)s3)c2Cl)c1Cl)c1ncc(CNCCO)s1` [Example 66, N,N′-(2,2′-dichloro-[1,1′-biphenyl]-3,3′-diyl)bis(5-(((2-hydroxyethyl)amino)methyl)thiazole-2-carboxamide)] stands < 25 nM; under `O=C(Nc1cccc(-c2cccc(NC(=O)c3ncc(CNCC(F)(F)F)s3)c2Cl)c1Cl)c1ncc(CNCC(F)(F)F)s1` [Example 68, N,N′-(2,2′-dichloro-[1,1′-biphenyl]-3,3′-diyl)bis(5-(((2,2,2-trifluoroethyl)amino)methyl)thiazole-2-carboxamide)], < 25 nM; under `Cc1c(NC(=O)c2cn3c(n2)CNCC3)cccc1-c1cccc(NC(=O)c2nc3c(s2)CNCC3)c1C` [Example 10, N-(2,2′-dimethyl-3′-(5,6,7,8-tetrahydroimidazo[1,2-a]pyrazine-2-carboxamido)-[1,1′-biphenyl]-3-yl)-4,5,6,7-tetrahydrothiazolo[5,4-c]pyridine-2-carboxamide], < 25 nM.

For the compound `Cc1c(NC(=O)c2nnc([C@H](C)N)s2)cccc1-c1cccc(NC(=O)c2nnc([C@H](C)N)s2)c1C` [Example 31, N,N′-(2,2′-dimethyl-[1,1′-biphenyl]-3,3′-diyl)bis(5-((S)-1-aminoethyl)-1,3,4-thiadiazole-2-carboxamide)], the IC50 is < 25 nM. Regarding `O=C(Nc1cccc(-c2cccc(NC(=O)c3nc4c(s3)CNCC4)c2Cl)c1Cl)c1nc2c(s1)CNCC2` [Example 89, N,N′-(2,2′-dichloro-[1,1′-biphenyl]-3,3′-diyl)bis(4,5,6,7-tetrahydrothiazolo[5,4-c]pyridine-2-carboxamide)], the IC50 is < 25 nM. Turning to `COC(=O)CN1CCc2nc(C(=O)N3CCc4c(-c5cccc6c5CCN6C(=O)c5nc6c(s5)CN(CC(=O)OC)CC6)cccc43)sc2C1` [Example 102, dimethyl 2,2′-(([4,4′-biindoline]-1,1′-dicarbonyl)bis(6,7-dihydrothiazolo[5,4-c]pyridine-2,5(4H)-diyl))diacetate], the IC50 was < 25 nM. Consider `CC(c1nc2c(s1)CN(C)CC2)N1CCc2c(-c3cccc4c3CCN4C(C)c3nc4c(s3)CN(C)CC4)cccc21` (stereo not drawn) [Example 47, 1,1′-bis(1-(5-methyl-4,5,6,7-tetrahydrothiazolo[5,4-c]pyridin-2-yl)ethyl)-4,4′-biindoline], for which the IC50 was < 25 nM. Consider `CS(=O)(=O)NC(=O)C1(N2CCc3nc(C(=O)N4CCc5c(-c6cccc7c6CCN7C(=O)c6nc7c(s6)CN(C6(C(=O)NS(C)(=O)=O)CC6)CC7)cccc54)sc3C2)CC1` [Example 129, 1,1′-(([4,4′-biindoline]-1,1′-dicarbonyl)bis(6,7-dihydrothiazolo[5,4-c]pyridine-2,5(4H)-diyl))bis(N-(methylsulfonyl)cyclopropane-1-carboxamide)], for which the IC50 was in the range of 25 to 100 nM.

In the case of `Cc1c(-c2cccc(N(C)C(=O)c3cc4c(s3)CCNC4)c2C)cccc1N(C)C(=O)c1cn2c(n1)CNCC2` [Example 34, N-(2,2′-dimethyl-3′-(N-methyl-5,6,7,8-tetrahydroimidazo[1,2-a]pyrazine-2-carboxamido)-[1,1′-biphenyl]-3-yl)-N-methyl-4,5,6,7-tetrahydrothieno[3,2-c]pyridine-2-carboxamide], the IC50 was < 25 nM. As for `CNCc1cnc(C(=O)N2CCc3c(-c4cccc5c4CCN5C(=O)c4ncc(CNC)s4)cccc32)s1` [Example 113, [4,4′-biindoline]-1,1′-diylbis((5-((methylamino)methyl)thiazol-2-yl)methanone)], the IC50 was < 25 nM.

On to `O=C(c1nc2n(n1)CCNC2)N1CCc2c(-c3cccc4c3CCN4C(=O)c3nc4n(n3)CCNC4)cccc21` [Example 136, [4,4′-biindoline]-1,1′-diylbis((5,6,7,8-tetrahydro-[1,2,4]triazolo[1,5-a]pyrazin-2-yl)methanone)], for which the IC50 was 100 to 200 nM. Regarding `Cc1c(Nc2nccc3cc(CN4CCOCC4)cnc23)cccc1-c1cccc(Nc2nccc3cc(CN4CCOCC4)cnc23)c1C` [Example 151, 2,2′-dimethyl-N3,N3′-bis(3-(morpholinomethyl)-1,7-naphthyridin-8-yl)-[1,1′-biphenyl]-3,3′-diamine], the IC50 was < 25 nM. Turning to `Cc1c(NC(=O)c2cnc(C(C)NCCO)cn2)cccc1-c1cccc(NC(=O)c2cnc(C(C)NCCO)cn2)c1C` (stereo not drawn) [Example 181, N,N′-(2,2′-dimethyl-[1,1′-biphenyl]-3,3′-diyl)bis(5-(1-((2-hydroxyethyl)amino)ethyl)pyrazine-2-carboxamide)], the IC50 was < 25 nM. On the same count and under the same terms, then `COC(=O)NCCNCc1cnc2c(Nc3cccc(-c4cccc5c4CCN5C(=O)C4=NC5CCN(CC(=O)O)CC5S4)c3C)nccc2c1` (stereo not drawn) [Example 159, 2-(2-(4-(3-((3-(((2-((methoxycarbonyl)amino)ethyl)amino)methyl)-1,7-naphthyridin-8-yl)amino)-2-methylphenyl)indoline-1-carbonyl)-3a,6,7,7a-tetrahydrothiazolo[5,4-c]pyridin-5(4H)-yl)acetic acid], with < 25 nM; and `Cc1c(NC(=O)c2ncc(CNCCO)s2)cccc1-c1cccc(NC(=O)c2ncc(CNCCO)s2)c1C` [Example 7, N,N′-(2,2′-dimethyl-[1,1′-biphenyl]-3,3′-diyl)bis(5-(((2-hydroxyethyl)amino)methyl)thiazole-2-carboxamide)], with < 25 nM. As to `CN(CCO)Cc1cnc(C(=O)N2CCc3c(-c4cccc5c4CCN5C(=O)c4ncc(CN(C)CCO)s4)cccc32)s1` [Example 116, [4,4′-biindoline]-1,1′-diylbis((5-(((2-hydroxyethyl)(methyl)amino)methyl)thiazol-2-yl)methanone)], the IC50 is < 25 nM. As for `CN(C)C(=O)CN1CCc2nc(C(=O)N3CCc4c(-c5cccc6c5CCN6C(=O)c5nc6c(s5)CN(CC(=O)N(C)C)CC6)cccc43)sc2C1` [Example 106, 2,2′-(([4,4′-biindoline]-1,1′-dicarbonyl)bis(6,7-dihydrothiazolo[5,4-c]pyridine-2,5(4H)-diyl))bis(N,N-dimethylacetamide)], the IC50 was < 25 nM. Still for that read-out and setting: then `CC(=O)N1CCc2nc(C(=O)Nc3cccc(-c4cccc(NC(=O)c5ccc6c(n5)CCNC6)c4C)c3C)ccc2C1` [Example 182, 6-acetyl-N-(2,2′-dimethyl-3′-(5,6,7,8-tetrahydro-1,6-naphthyridine-2-carboxamido)-[1,1′-biphenyl]-3-yl)-5,6,7,8-tetrahydro-1,6-naphthyridine-2-carboxamide], with < 25 nM; and `Cc1c(NC(=O)c2nc3c(n2C)CNCC3)cccc1-c1cccc(NC(=O)c2nc3c(n2C)CNCC3)c1C` [Example 64, N,N′-(2,2′-dimethylbiphenyl-3,3′-diyl)bis(3-methyl-4,5,6,7-tetrahydro-3H-imidazo[4,5-c]pyridine-2-carboxamide)], with < 25 nM; and `COB(CCCN1CCc2nc(C(=O)N3CCc4c(-c5cccc6c5CCN6C(=O)c5nc6c(s5)CN(CCCB(OC)OC)CC6)cccc43)sc2C1)OC` [Example 122, tetramethyl((([4,4′-biindoline]-1,1′-dicarbonyl)bis(6,7-dihydrothiazolo[5,4-c]pyridine-2,5(4H)-diyl))bis(propane-3,1-diyl))diboronate], with < 25 nM. Take `Cc1c(NC(=O)c2nc3c(s2)CNCC3)cccc1-c1cccc(NC(=O)c2nc3c(s2)CNCC3)c1Cl` [Example 48, N,N′-(2-chloro-2′-methylbiphenyl-3,3′-diyl)bis(4,5,6,7-tetrahydrothiazolo[5,4-c]pyridine-2-carboxamide)]: the IC50 is < 25 nM. With `Cc1c(NC(=O)c2nc3c(s2)CN(C(C)CO)CC3)cccc1-c1cccc(NC(=O)c2nc3c(s2)CN(C(C)CO)CC3)c1C` (stereo not drawn) [Example 45, N,N′-(2,2′-dimethyl-[1,1′-biphenyl]-3,3′-diyl)bis(5-(1-hydroxypropan-2-yl)-4,5,6,7-tetrahydrothiazolo[5,4-c]pyridine-2-carboxamide)], the IC50 is < 25 nM.

In the case of `Cc1c(NC(=O)c2nnc3n2CCNC3)cccc1-c1cccc(NC(=O)c2nnc3n2CCNC3)c1C` [Example 39, N,N′-(2,2′-dimethyl-[1,1′-biphenyl]-3,3′-diyl)bis(5,6,7,8-tetrahydro-[1,2,4]triazolo[4,3-a]pyrazine-3-carboxamide)], the IC50 was < 25 nM.

The assay is the same for the next values; noted with them: recombinant human PD-L1 (19-238) His-tag / human PD-1 (25-167) Fc tag, numeric values.
For the compound `Cc1c(NC(=O)c2cc3c(s2)CNCC3)cccc1-c1cccc(NC(=O)c2cc3c(s2)CNCC3)c1C` [Example 32, N,N′-(2,2′-dimethyl-[1,1′-biphenyl]-3,3′-diyl)bis(4,5,6,7-tetrahydrothieno[2,3-c]pyridine-2-carboxamide)], the IC50 was found to be 18.1 nM.

In general, IC50 refers to the concentration that inhibits the measured activity by half.
